Consider ten compounds from US9561201B2, “Therapeutic compounds” (Fibrotech Therapeutics Pty Ltd, priority 2006, dated 2017).

Some results are limits rather than exact numbers.

Series [1] has as its system rat mesangial cell line. The series is described as follows: TGF-β stimulated 3H-proline incorporation in mesangial cells (Example 5). As to conditions: for Collagen synthesis: inhibition ranked against tranilast (T) or FT11. The series is classed as cell-based. How it is done: (§1) A well-characterized cloned rat mesangial cell line (gift of D Nikolic-Patterson) is cultured in DMEM with FBS, 100 U/mL penicillin, and 100 ug/mL streptomycin in a humidified 5% CO2 atmosphere at 37° C. Cells are plated into 24-well culture dishes in DMEM/10% FBS at low density and allowed to adhere overnight. Cells are used between passages 20 and 40. The subconfluent cells are starved overnight in DMEM/0.1% FBS containing 150 uM L-ascorbic acid, prior to 4 hours of pre-treatment with or without tranilast or the FT compounds, followed by the addition of 5 ng/mL rhTGF-β11 (R&D Systems) and 1 uCi/mL of L-(2,3,4,5-^3H)-proline. Control wells have the compounds but no TGF-β1 added. Cells are incubated for a further 44 hours during which time their appearance is visually monitored. The cells are then washed three times in ice-cold PBS, twice in ice cold 10% TCA and solubilized in 750 uL 1M NaOH for 45 minutes at 37° C. or overnight at 4° C. A 500 uL aliquot is neutralized with 500 uL 1M HCl and 10 mL scintillation fluid (Instagel Plus-Perkin-Elmer) added. Counts are performed on a beta counter.
To normalize the proline incorporation counts to take into account the proliferative effects of TGF-β1, a BioRad protein assay is performed on a 100-150 uL aliquot of the remaining solubilized cells. The sample is neutralized with an equal amount of 1M HCl prior to the assay. The BSA standards used to construct the standard curve have the same amount of 1M NaOH and 1M HCl added as is present in the samples for assay.
Proline incorporation is expressed as cpm/ug protein. In order to compare inter-assay results, the incorporation is expressed as percentage reduction of TGF stimulated proline incorporation, where TGF alone gives 0% reduction and the zero control gives 100% reduction.

Series [2] deals with rat mesangial cell line. Nature of the series: Effect on mesangial cell appearance (visual monitoring during proline assay). The series is classed as cell-based. How it is done:
as §1
Compounds in Bold have Minimal Effect on Cell Appearance and Viability

Setting [3] is: Rattus norvegicus, Mesangial cell, @ 30 μM, 5 ng/mL TGF-β1, 44 h, read-out: Mesangial Cell Assay TGF-β % reduction of TGF-β stimulation_proline inc.
Where [4] appears, read: Rattus norvegicus, Mesangial cell, 5 ng/mL TGF-β1, 44 h, read-out: Mesangial Cell Assay TGF-β % reduction of TGF-β stimulation_proline inc.
Where [5] appears, read: Rattus norvegicus, Mesangial cell, @ 10 μM, 5 ng/mL TGF-β1, 44 h, read-out: Mesangial Cell Assay TGF-β % reduction of TGF-β stimulation_proline inc.

Take `COc1ccc(/C=C/C(=O)Nc2ccccc2C(=O)O)cc1OC` [Analogue 1, (E)-2-[[3-(3,4-Dimethoxyphenyl)-1-oxo-2-propenyl]amino]benzoic acid]: in the series with rat mesangial cell line [1] (setting [3]), the inhibition at 30 µM was in the range of 20 to 50%. Also, the inhibition at 100 µM in the series on rat mesangial cell line [1] (setting [4]) is 50 to 70%. Besides, in the series with rat mesangial cell line [1], the Collagen synthesis entry is reported as “=T”. Also, the “Effect on mesangial cell appearance” value in the series with rat mesangial cell line [2] (@ 100 μM) is given as “stress @”.

Turning to `COc1ccc(/C=C/C(=O)Nc2ccccc2C(=O)O)cc1` [Analogue 3, (E)-2-[[3-(4-Methoxyphenyl)-1-oxo-2-propenyl]amino]benzoic acid], the Collagen synthesis entry with rat mesangial cell line [1] is recorded as “<<T”.

With `COc1ccc(/C=C/C(=O)Nc2ccccc2C(N)=O)cc1OC` [Analogue 12, (E)-2-[[3-(3,4-Dimethoxyphenyl)-1-oxo-2-propenyl]amino]benzamide], the inhibition at 10 µM in the series on rat mesangial cell line [1] (setting [5]) is about 13%. Besides, the inhibition at 30 µM in the series on rat mesangial cell line [1] (setting [3]) turned out to be 20%. In addition, in the series with rat mesangial cell line [1] (setting [4]), the inhibition at 100 µM worked out at 36%. Besides, the Collagen synthesis result in the series on rat mesangial cell line [1] is “<FT11”. In addition, the “Effect on mesangial cell appearance” value in the series with rat mesangial cell line [2] (@ 100 μM) is “sparse @”.

On to `COc1ccc(/C=C/C(=O)Nc2ccccc2)cc1OC` [Analogue 13, (E)-[3-(3,4-Dimethoxyphenyl)-1-oxo-2-propenyl]aminobenzene], for which, in the series with rat mesangial cell line [1] (setting [3]), the inhibition at 30 µM was about 20%. Besides, the inhibition at 100 µM with rat mesangial cell line [1] (setting [4]) was about 55%. For the same compound, the Collagen synthesis result with rat mesangial cell line [1] is “<FT11”. For the same compound, in the series with rat mesangial cell line [2] (@ 100 μM), the “Effect on mesangial cell appearance” value is given as “sparse @”.

In the case of `COc1ccc(/C=C/C(=O)Nc2ccc(C(=O)O)cc2)cc1OC` [Analogue 14, (E)-4-[[3-(3,4-Dimethoxyphenyl)-1-oxo-2-propenyl]amino]benzoic acid], in the series with rat mesangial cell line [1] (setting [4]), the inhibition at 100 µM was about 30%. Besides, the Collagen synthesis result in the series with rat mesangial cell line [1] is given as “<FT11”.

Consider `C#CCNC(=O)c1ccccc1NC(=O)/C=C/c1ccc(OC)c(OC)c1` [Analogue 15, (E)-2-[[3-(3,4-Dimethoxyphenyl)-1-oxo-2-propenyl]amino]-N-propargylbenzamide], for which the inhibition at 10 µM with rat mesangial cell line [1] (setting [5]) was about 24%. For the same compound, the inhibition at 30 µM in the series on rat mesangial cell line [1] (setting [3]) was 36%. Also, the inhibition at 100 µM in the series on rat mesangial cell line [1] (setting [4]) is 75%. The Collagen synthesis entry with rat mesangial cell line [1] is “<FT11”. Further, the “Effect on mesangial cell appearance” value in the series with rat mesangial cell line [2] (@ 30 μM) and in the series on rat mesangial cell line [2] (@ 100 μM) was “sparse @ 30” each time.

With `CCC#CCOc1cc(/C=C/C(=O)Nc2ccccc2C(=O)O)ccc1OC` [Analogue 19], the “Mesangial Cell Assay TGF-β % reduction of TGF-β stimulation_proline inc.” value in the series on rat mesangial cell line [1] (@ 10 μM, 5 ng/mL TGF-β1, 44 h) is on record as about 80% @ 10; in the series on rat mesangial cell line [1] (@ 30 μM, 5 ng/mL TGF-β1, 44 h), 100% @ 30. In the series on rat mesangial cell line [1], the Collagen synthesis result was “>FT11”.

Regarding `COc1cc(/C=C/C(=O)Nc2ccccc2C(=O)O)ccc1OCc1cn(CC(=O)Nc2ccccc2)nn1` [Analogue 20, (E)-2-[[3-(3-Methoxy-4-((1-(2-oxo-2-(phenylamino)ethyl)-1H-1,2,3-triazol-4-yl)methoxy)phenyl)-1-oxo-2-propenyl]amino]benzoic acid], the inhibition at 10 µM in the series with rat mesangial cell line [1] (setting [5]) amounted to 30%. Besides, in the series with rat mesangial cell line [1] (setting [3]), the inhibition at 30 µM is 50%. Also, the inhibition at 100 µM in the series on rat mesangial cell line [1] (setting [4]) came out at 90%. Besides, in the series on rat mesangial cell line [1], the Collagen synthesis result is reported as “=FT11”. In addition, the “Effect on mesangial cell appearance” value in the series on rat mesangial cell line [2] (@ 100 μM) is listed as “dead”.

Turning to `CC#CCOc1ccc(/C=C/C(=O)Nc2ccccc2C(=O)O)cc1OC` [Analogue 22, (E)-2-[[3-(4-(But-2-ynyloxy)-3-methoxyphenyl)-1-oxo-2-propenyl]amino]benzoic acid], in the series with rat mesangial cell line [1] (Rattus norvegicus, Mesangial cell, @ 3 μM, 5 ng/mL TGF-β1, 44 h, read-out: Mesangial Cell Assay TGF-β % reduction of TGF-β stimulation_proline inc.), the inhibition at 3 µM was about 37%. Further, the inhibition at 10 µM in the series on rat mesangial cell line [1] (setting [5]) came out at 56%. In addition, in the series on rat mesangial cell line [1] (setting [3]), the inhibition at 30 µM is about 70%. In the series with rat mesangial cell line [1], the Collagen synthesis entry was “=FT11”. Further, the “Effect on mesangial cell appearance” value with rat mesangial cell line [2] (@ 100 μM) is recorded as “dead”.

As to `COc1ccc(/C=C/C(=O)Nc2ccccc2C(=O)NCc2cn(CC(=O)Nc3ccccc3)nn2)cc1OC` [Analogue 32, (E)-2-(3-(3,4-Dimethoxyphenyl)acrylamido)-N-((1-(2-oxo-2-(phenylamino)ethyl)-1H-1,2,3-triazol-4-yl)methyl)benzamide], the inhibition at 10 µM in the series on rat mesangial cell line [1] (setting [5]) was about 26%. Further, the inhibition at 30 µM in the series on rat mesangial cell line [1] (setting [3]) amounted to 62%. Besides, the Collagen synthesis result in the series with rat mesangial cell line [1] is listed as “Toxic”. The “Effect on mesangial cell appearance” value in the series with rat mesangial cell line [2] (no concentration stated) is reported as “Dead”.
